# Reference: patent EP3305781A1, “CHEMICAL SUBSTANCES WHICH INHIBIT THE ENZYMATIC ACTIVITY OF HUMAN KALLIKREIN-RELATED PEPTIDASE 6 (KLK6)” (Deutsches Krebsforschungszentrum, priority 2016, dated 2018)
# Like-named read-outs stand apart in the source and are kept apart here.
# Tests used:
# Assay in all cases: Biochemical inhibition assay, fluorogenic substrate FSR-AMC
# Factor Xa = Factor Xa (Homo sapiens, UniProt P00742)
# KLK6 = KLK6 (Homo sapiens, UniProt Q92876)
# Trypsin = Trypsin (Homo sapiens, UniProt P07477)
# Thrombin = Thrombin (Homo sapiens, UniProt P00734)
# [1] = read-out: Factor Xa IC50, Factor Xa 4 nM, 30 min incubation with inhibitor, FSR-AMC 20 µM, Tris pH 7.5
# [2] = read-out: KLK6 IC50, KLK6 5 nM (produced in insect cells), 30 min incubation with inhibitor, FSR-AMC 20 µM, Tris pH 7.5
# [3] = read-out: Trypsin IC50, Trypsin 0.88 ng/mL, 30 min incubation with inhibitor, FSR-AMC 20 µM, Tris pH 7.5
# [4] = read-out: Thrombin IC50, Thrombin 9.8·10^-5 NIH unit/mL, 30 min incubation with inhibitor, FSR-AMC 20 µM, Tris pH 7.5
# Factor Xa, sequence (P00742 235-488 limits assumed): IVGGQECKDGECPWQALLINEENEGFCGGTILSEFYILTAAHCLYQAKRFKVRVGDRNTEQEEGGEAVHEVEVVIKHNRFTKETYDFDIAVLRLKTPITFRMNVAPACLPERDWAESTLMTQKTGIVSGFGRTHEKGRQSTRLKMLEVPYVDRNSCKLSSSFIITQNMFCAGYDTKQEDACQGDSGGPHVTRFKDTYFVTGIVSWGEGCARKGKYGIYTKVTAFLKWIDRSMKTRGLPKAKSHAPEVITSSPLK
# Factor Xa, sequence (P00742 41-179 partner limits assumed): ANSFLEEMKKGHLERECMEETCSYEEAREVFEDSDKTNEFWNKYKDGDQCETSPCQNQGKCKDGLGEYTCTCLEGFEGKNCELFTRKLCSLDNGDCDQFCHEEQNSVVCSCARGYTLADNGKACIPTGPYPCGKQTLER
SMILES,IC50 (Factor Xa; [1]) [µM],IC50 (KLK6; [2]) [µM],IC50 (Trypsin; [3]) [µM],IC50 (Thrombin; [4]) [µM],IC50 (Factor Xa) [µM],IC50 (Trypsin) [µM],IC50 (Thrombin) [µM],IC50 (KLK6) [µM]
Cc1nn(-c2ccccc2)c(C)c1NC(=O)C(C)OC(=O)Cn1c(C)cc2ccccc21 (racemic) [compound 37],> 50,1.48,> 50,> 50,–,–,–,–
"Cc1nn(-c2ccccc2)c(C)c1NC(=O)COC(=O)Cn1c(C)cc2ccccc21 [compound 1, 2-((3,5-dimethyl-1-phenyl-1H-pyrazol-4-yl)amino)-2-oxoethyl 2-(2-methyl-H-indol-1-yl)acetate]",–,–,–,–,> 200,39.4,> 200,–
"Cc1nn(C)c(C)c1NC(=O)COC(=O)Cn1c(C)cc2ccccc21 [compound 2, 2-oxo-2-((1,3,5-trimethyl-1H-pyrazol-4-yl)amino)ethyl 2-(2-methyl-1H-indol-1-yl)acetate]",–,–,–,–,> 200,71.5,> 200,1.25
"Cc1cccc(-n2nc(C)c(NC(=O)COC(=O)Cn3c(C)cc4ccccc43)c2C)c1 [compound 3, 2-((3,5-dimethyl-1-(m-tolyl)-1H-pyrazol-4-yl)amino)-2-oxoethyl 2-(2-methyl-1H-indol-1-yl)acetate]",–,–,–,–,> 200,65.7,> 200,0.371
"Cc1nn(-c2ccc(C(F)(F)F)cc2)c(C)c1NC(=O)COC(=O)Cn1c(C)cc2ccccc21 [compound 4, 2-((3,5-dimethyl-1-(4-(trifluoromethyl)phenyl)-1H-pyrazol-4-yl)amino)-2-oxoethyl 2-(2-methyl-1H-indol-1-yl)acetate]",–,–,–,–,> 200,> 200,> 200,2.89
"Cc1nn(-c2ccccc2[N+](=O)[O-])c(C)c1NC(=O)COC(=O)Cn1c(C)cc2ccccc21 [compound 5, 2-((3,5-dimethyl-1-(2-nitrophenyl)-1H-pyrazol-4-yl)amino)-2-oxoethyl 2-(2-methyl-1H-indol-1-yl)acetate]",–,–,–,–,50,51,> 200,0.172
"Cc1nn(-c2ccc(C#N)cc2)c(C)c1NC(=O)COC(=O)Cn1c(C)cc2ccccc21 [compound 6, 2-((1-(4-cyanophenyl)-3,5-dimethyl-1H-pyrazol-4-yl)amino)-2-oxoethyl 2-(2-methyl-1H-indol-1-yl)acetate]",–,–,–,–,> 200,> 200,> 200,0.439
"COc1ccc(Cn2nc(C)c(NC(=O)COC(=O)Cn3c(C)cc4ccccc43)c2C)cc1 [compound 7, 2-((1-(4-methoxybenzyl)-3,5-dimethyl-1H-pyrazol-4-yl)amino)-2-oxoethyl 2-(2-methyl-1H-indol-1-yl)acetate]",–,–,–,–,> 200,> 200,> 200,0.598
"Cc1nn(-c2ccccc2C(F)(F)F)c(C)c1NC(=O)COC(=O)Cn1c(C)cc2ccccc21 [compound 8, 2-((3,5-dimethyl-1-(2-(trifluoromethyl)phenyl)-1H-pyrazol-4-yl)amino)-2-oxoethyl 2-(2-methyl-1H-indol-1-yl)acetate]",–,–,–,–,139,126,> 200,0.258
"Cc1ccc(-n2nc(C)c(NC(=O)COC(=O)Cn3c(C)cc4ccccc43)c2C)cc1 [compound 9, 2-((3,5-dimethyl-1-(p-tolyl)-1H-pyrazol-4-yl)amino)-2-oxoethyl 2-(2-methyl-1H-indol-1-yl)acetate]",–,–,–,–,> 200,67.1,197,0.267
"Cc1nn(-c2ccc([N+](=O)[O-])cc2)c(C)c1NC(=O)COC(=O)Cn1c(C)cc2ccccc21 [compound 10, 2-((3,5-dimethyl-1-(4-nitrophenyl)-1H-pyrazol-4-yl)amino)-2-oxoethyl 2-(2-methyl-1H-indol-1-yl)acetate]",–,–,–,–,> 200,> 200,> 200,0.994
"Cc1nn(-c2ccccc2)c(C)c1NC(=O)COC(=O)Cn1ccc2ccccc21 [compound 11, 2-((3,5-dimethyl-1-phenyl-1H-pyrazol-4-yl)amino)-2-oxoethyl 2-(1H-indol-1-yl)acetate]",–,–,–,–,> 200,> 200,> 200,14.5
"Cc1nn(-c2ccccc2)c(C)c1NC(=O)COC(=O)Cc1c[nH]c2ccccc12 [compound 12, 2-((3,5-dimethyl-1-phenyl-1H-pyrazol-4-yl)amino)-2-oxoethyl 2-(1H-indol-3-yl)acetate]",–,–,–,–,135,139,> 200,–
"Cc1ccc(-n2nc(C)c(NC(=O)COC(=O)Cc3c[nH]c4ccccc34)c2C)cc1 [compound 13, 2-((3,5-dimethyl-1-(p-tolyl)-1H-pyrazol-4-yl)amino)-2-oxoethyl 2-(1H-indol-3-yl)acetate]",–,–,–,–,162,133,> 200,6.47
Cc1ccccc1NC(=O)COC(=O)Cn1c(C)cc2ccccc21 [compound 26],> 50,–,> 50,> 50,–,–,–,–
Cc1nn(-c2ccccc2)c(C)c1NC(=O)COC(=O)Cn1c(C)cc2cc(Cl)ccc21 [compound 30],> 50,–,> 50,> 50,–,–,–,–
Cc1nn(-c2ccccc2)c(C)c1NC(=O)COC(=O)Cc1c(C)[nH]c2ccccc12 [compound 38],> 50,–,27.4,> 50,–,–,–,–
Cc1nn(-c2ccccc2)c(C)c1NC(=O)C1(OC(=O)Cn2c(C)cc3ccccc32)CC1 [compound 40],> 50,–,> 50,> 50,–,–,–,–
Cc1nn(-c2ccccc2)c(C)c1NC(=O)COC(=O)Cc1cccc2ccccc12 [compound 42],–,–,> 50,> 50,–,–,–,–
Cc1nn(-c2ccccc2)c(C)c1NC(=O)COC(=O)Cc1ccccc1 [compound 43],–,–,> 50,> 50,–,–,–,–
Cc1nn(-c2ccccc2)c(C)c1NC(=O)COC(=O)Cc1ccc(N)cc1 [compound 44],–,12.2,> 50,> 50,–,–,–,–
Cc1nn(-c2ccccc2)c(C)c1NC(=O)COC(=O)Cc1ccccc1Cl [compound 45],–,1.36,> 50,> 50,–,–,–,–
Cc1nn(-c2ccccc2)c(C)c1NC(=O)COC(=O)Cc1ccc(C#N)cc1 [compound 46],–,29.4,> 50,> 50,–,–,–,–
Cc1nn(-c2ccccc2)c(C)c1NC(=O)COC(=O)Cc1ccccc1Br [compound 48],> 200,–,> 200,> 200,–,–,–,–
Cc1nn(-c2ccccc2)c(C)c1NC(=O)COC(=O)Cc1ccsc1 [compound 70],> 200,–,> 200,> 200,–,–,–,–
Cc1[nH]c2ccccc2c1CC(=O)OCC(=O)Nc1ccc(N2CCOCC2)cc1 [compound 76],> 200,–,> 200,> 200,–,–,–,–
Cc1nn(-c2ccccc2)c(C)c1NC(=O)COC(=O)C(C)c1c(C)[nH]c2ccccc12 (stereo not shown) [compound 81],> 200,–,> 200,> 200,–,–,–,–
Cc1[nH]c2ccccc2c1CC(=O)OCC(=O)Nc1cncnc1 [compound 86],148,–,> 200,66.1,–,–,–,–
Cc1nn(-c2ccccc2)c(C)c1NC(=O)COC(=O)CCc1c(C)[nH]c2ccccc12 [compound 87],> 200,–,> 200,> 200,–,–,–,–
